± gives the expanded uncertainty stated by the source.
Assay: excess molar enthalpy (molar enthalpy of mixing); xn = mol fraction of the nth substance listed
Conditions: 101.3 kPa, Liquid, Flow calorimetry

CCOC(=O)CC(=O)OCC [diethyl 1,3-propanedioate] + CO
excess molar enthalpy [kJ/mol]
Conditions | 288.2 K | 298.2 K | 313.2 K | 328.2 K
x1 = 0.05 | 0.276 ± 0.008 | 0.307 ± 0.009 | 0.339 ± 0.009 | 0.365 ± 0.01
x1 = 0.0996 | 0.513 ± 0.012 | 0.555 ± 0.013 | 0.61 ± 0.014 | 0.673 ± 0.016
x1 = 0.1496 | 0.698 ± 0.016 | 0.763 ± 0.017 | 0.851 ± 0.019 | 0.926 ± 0.02
x1 = 0.2011 | 0.858 ± 0.019 | 0.937 ± 0.02 | 1.04 ± 0.023 | 1.15 ± 0.025
x1 = 0.2515 | 0.989 ± 0.021 | 1.08 ± 0.023 | 1.2 ± 0.026 | 1.32 ± 0.029
x1 = 0.3009 | 1.09 ± 0.024 | 1.2 ± 0.026 | 1.33 ± 0.029 | 1.46 ± 0.031
x1 = 0.3506 | 1.18 ± 0.025 | 1.29 ± 0.028 | 1.43 ± 0.031 | 1.57 ± 0.034
x1 = 0.3988 | 1.25 ± 0.027 | 1.36 ± 0.029 | 1.51 ± 0.032 | 1.65 ± 0.035
x1 = 0.4486 | 1.29 ± 0.028 | 1.4 ± 0.03 | 1.56 ± 0.033 | 1.7 ± 0.036
x1 = 0.4993 | 1.31 ± 0.028 | 1.43 ± 0.031 | 1.58 ± 0.034 | 1.71 ± 0.037
x1 = 0.55 | 1.32 ± 0.028 | 1.44 ± 0.031 | 1.57 ± 0.034 | 1.71 ± 0.037
x1 = 0.5995 | 1.28 ± 0.028 | 1.41 ± 0.03 | 1.54 ± 0.033 | 1.66 ± 0.035
x1 = 0.6464 | 1.26 ± 0.027 | 1.35 ± 0.029 | 1.49 ± 0.032 | 1.59 ± 0.034
x1 = 0.698 | 1.18 ± 0.025 | 1.27 ± 0.027 | 1.39 ± 0.03 | 1.48 ± 0.032
x1 = 0.7453 | 1.09 ± 0.024 | 1.18 ± 0.026 | 1.27 ± 0.027 | 1.32 ± 0.028
x1 = 0.7969 | 0.978 ± 0.021 | 1.02 ± 0.022 | 1.09 ± 0.024 | 1.16 ± 0.025
x1 = 0.8536 | 0.796 ± 0.018 | 0.768 ± 0.017 | 0.844 ± 0.019 | 0.893 ± 0.02
x1 = 0.903 | 0.582 ± 0.013 | 0.586 ± 0.014 | 0.602 ± 0.014 | 0.607 ± 0.015
x1 = 0.95 | 0.335 ± 0.009 | 0.323 ± 0.009 | 0.301 ± 0.01 | 0.198 ± 0.01

CCOC(=O)CC(=O)OCC [diethyl 1,3-propanedioate] + CC(C)O
excess molar enthalpy [kJ/mol]
Conditions | 288.2 K | 298.2 K | 313.2 K | 328.2 K
x1 = 0.0511 | 0.607 ± 0.016 | 0.632 ± 0.017 | 0.659 ± 0.018 | 0.681 ± 0.018
x1 = 0.1001 | 1.02 ± 0.023 | 1.1 ± 0.025 | 1.16 ± 0.027 | 1.22 ± 0.028
x1 = 0.1511 | 1.35 ± 0.03 | 1.47 ± 0.032 | 1.58 ± 0.035 | 1.63 ± 0.036
x1 = 0.2012 | 1.62 ± 0.035 | 1.75 ± 0.038 | 1.88 ± 0.04 | 1.98 ± 0.043
x1 = 0.2494 | 1.8 ± 0.039 | 1.96 ± 0.042 | 2.13 ± 0.046 | 2.22 ± 0.048
x1 = 0.3015 | 1.97 ± 0.042 | 2.13 ± 0.046 | 2.33 ± 0.05 | 2.41 ± 0.052
x1 = 0.3507 | 2.09 ± 0.045 | 2.27 ± 0.048 | 2.45 ± 0.052 | 2.56 ± 0.055
x1 = 0.3998 | 2.16 ± 0.046 | 2.34 ± 0.05 | 2.53 ± 0.054 | 2.64 ± 0.056
x1 = 0.4484 | 2.19 ± 0.047 | 2.38 ± 0.051 | 2.58 ± 0.055 | 2.67 ± 0.057
x1 = 0.5003 | 2.19 ± 0.047 | 2.37 ± 0.051 | 2.56 ± 0.055 | 2.66 ± 0.057
x1 = 0.5513 | 2.17 ± 0.047 | 2.34 ± 0.05 | 2.51 ± 0.054 | 2.6 ± 0.055
x1 = 0.6007 | 2.1 ± 0.045 | 2.26 ± 0.048 | 2.43 ± 0.052 | 2.5 ± 0.053
x1 = 0.6478 | 2.02 ± 0.043 | 2.17 ± 0.047 | 2.32 ± 0.05 | 2.35 ± 0.05
x1 = 0.6977 | 1.88 ± 0.04 | 2.02 ± 0.043 | 2.14 ± 0.046 | 2.16 ± 0.046
x1 = 0.7508 | 1.67 ± 0.036 | 1.8 ± 0.039 | 1.89 ± 0.041 | 1.9 ± 0.041
x1 = 0.8007 | 1.44 ± 0.031 | 1.58 ± 0.034 | 1.64 ± 0.035 | 1.62 ± 0.035
x1 = 0.8468 | 1.2 ± 0.027 | 1.29 ± 0.028 | 1.34 ± 0.03 | 1.26 ± 0.028
x1 = 0.9023 | 0.773 ± 0.018 | 0.918 ± 0.021 | 0.892 ± 0.021 | 0.845 ± 0.02
x1 = 0.9537 | 0.403 ± 0.011 | 0.465 ± 0.014 | 0.436 ± 0.013 | 0.391 ± 0.012

CCOC(=O)CC(=O)OCC [diethyl 1,3-propanedioate] + CCCO
excess molar enthalpy [kJ/mol]
Conditions | 288.2 K | 298.2 K | 313.2 K | 328.2 K
x1 = 0.0499 | 0.487 ± 0.013 | 0.534 ± 0.014 | 0.578 ± 0.016 | 0.597 ± 0.016
x1 = 0.1004 | 0.866 ± 0.02 | 0.941 ± 0.021 | 1.04 ± 0.024 | 1.11 ± 0.025
x1 = 0.1588 | – | 1.31 ± 0.029 | 1.44 ± 0.032 | 1.55 ± 0.034
x1 = 0.209 | – | 1.57 ± 0.034 | 1.74 ± 0.038 | 1.87 ± 0.04
x1 = 0.2513 | 1.59 ± 0.035 | 1.75 ± 0.038 | 1.92 ± 0.041 | 2.05 ± 0.044
x1 = 0.3 | 1.74 ± 0.037 | 1.91 ± 0.041 | 2.09 ± 0.045 | 2.24 ± 0.048
x1 = 0.3491 | 1.85 ± 0.04 | 2.03 ± 0.043 | 2.23 ± 0.048 | 2.39 ± 0.051
x1 = 0.3982 | 1.94 ± 0.041 | 2.11 ± 0.045 | 2.32 ± 0.05 | 2.48 ± 0.053
x1 = 0.451 | 1.98 ± 0.042 | 2.16 ± 0.046 | 2.36 ± 0.05 | 2.52 ± 0.054
x1 = 0.499 | 2 ± 0.043 | 2.17 ± 0.046 | 2.37 ± 0.051 | 2.52 ± 0.054
x1 = 0.5503 | 1.98 ± 0.042 | 2.14 ± 0.046 | 2.34 ± 0.05 | 2.48 ± 0.053
x1 = 0.6002 | 1.93 ± 0.041 | 2.08 ± 0.044 | 2.26 ± 0.048 | 2.37 ± 0.051
x1 = 0.6479 | 1.86 ± 0.04 | 1.99 ± 0.043 | 2.14 ± 0.046 | 2.25 ± 0.048
x1 = 0.6986 | 1.75 ± 0.038 | 1.87 ± 0.04 | 1.97 ± 0.042 | 2.06 ± 0.044
x1 = 0.7525 | 1.57 ± 0.034 | 1.67 ± 0.036 | 1.75 ± 0.038 | 1.82 ± 0.039
x1 = 0.797 | 1.4 ± 0.03 | 1.47 ± 0.032 | 1.51 ± 0.033 | 1.57 ± 0.034
x1 = 0.8506 | 1.13 ± 0.025 | 1.17 ± 0.026 | 1.19 ± 0.026 | 1.23 ± 0.027
x1 = 0.9003 | 0.821 ± 0.019 | 0.826 ± 0.019 | 0.856 ± 0.02 | 0.854 ± 0.02
x1 = 0.9527 | 0.438 ± 0.012 | 0.435 ± 0.012 | 0.432 ± 0.012 | 0.418 ± 0.012

CCOC(=O)CC(=O)OCC [diethyl 1,3-propanedioate] + CCO
excess molar enthalpy [kJ/mol]
Conditions | 288.2 K | 298.2 K | 313.2 K | 328.2 K
x1 = 0.0501 | 0.397 ± 0.011 | 0.423 ± 0.012 | 0.476 ± 0.013 | 0.497 ± 0.014
x1 = 0.1004 | 0.702 ± 0.016 | 0.775 ± 0.018 | 0.859 ± 0.02 | 0.929 ± 0.021
x1 = 0.1491 | 0.974 ± 0.022 | 1.03 ± 0.023 | 1.17 ± 0.026 | 1.27 ± 0.028
x1 = 0.1995 | 1.18 ± 0.026 | 1.26 ± 0.027 | 1.41 ± 0.031 | 1.53 ± 0.033
x1 = 0.2507 | 1.33 ± 0.029 | 1.45 ± 0.031 | 1.62 ± 0.035 | 1.76 ± 0.038
x1 = 0.2985 | 1.45 ± 0.031 | 1.59 ± 0.034 | 1.78 ± 0.038 | 1.93 ± 0.041
x1 = 0.3517 | 1.56 ± 0.034 | 1.7 ± 0.036 | 1.9 ± 0.041 | 2.05 ± 0.044
x1 = 0.399 | 1.63 ± 0.035 | 1.78 ± 0.038 | 1.98 ± 0.042 | 2.13 ± 0.046
x1 = 0.4509 | 1.68 ± 0.036 | 1.82 ± 0.039 | 2.03 ± 0.043 | 2.18 ± 0.047
x1 = 0.4985 | 1.7 ± 0.036 | 1.85 ± 0.04 | 2.04 ± 0.044 | 2.2 ± 0.047
x1 = 0.5503 | 1.69 ± 0.036 | 1.83 ± 0.039 | 2.03 ± 0.043 | 2.17 ± 0.046
x1 = 0.6013 | 1.65 ± 0.035 | 1.79 ± 0.038 | 1.96 ± 0.042 | 2.09 ± 0.045
x1 = 0.6504 | 1.59 ± 0.034 | 1.72 ± 0.037 | 1.88 ± 0.04 | 1.99 ± 0.043
x1 = 0.6967 | 1.5 ± 0.032 | 1.61 ± 0.035 | 1.76 ± 0.038 | 1.85 ± 0.04
x1 = 0.7465 | 1.37 ± 0.03 | 1.47 ± 0.032 | 1.59 ± 0.034 | 1.66 ± 0.036
x1 = 0.8002 | 1.19 ± 0.026 | 1.26 ± 0.027 | 1.35 ± 0.029 | 1.39 ± 0.03
x1 = 0.8497 | 0.972 ± 0.021 | 1.01 ± 0.022 | 1.08 ± 0.024 | 1.12 ± 0.025
x1 = 0.9027 | 0.688 ± 0.016 | 0.721 ± 0.017 | 0.747 ± 0.017 | 0.777 ± 0.018
x1 = 0.9498 | 0.375 ± 0.011 | 0.396 ± 0.011 | 0.441 ± 0.012 | 0.424 ± 0.012

Reference: the NIST ThermoML archive (doi:10.1021/je9003806)
